Source: patent US20260272907A1, “Therapeutic Tyrosine Kinase Inhibitors for Multiple Sclerosis” (Principia Biopharma Inc., priority 2022, published 2026)

Test system: patients with relapsing multiple sclerosis
Assay: Phase 2b dose-finding study: adverse events (TEAEs, SAEs, AESIs), safety population
[1] = BTKi 60 mg (n = 32), Weeks 1 to 12
[2] = BTKi 5 (N = 32), BTK inhibitor treatment period, safety population
[3] = BTKi 15 (N = 32), BTK inhibitor treatment period, safety population
[4] = BTKi 30 (N = 33), BTK inhibitor treatment period, safety population
[5] = BTKi 60 (N = 33), BTK inhibitor treatment period, safety population

Structure (SMILES): C=CC(=O)N1CCC[C@@H](n2c(=O)n(-c3ccc(Oc4ccccc4)cc3)c3c(N)nccc32)C1 [the BTK inhibitor, (R)-1-(1-acryloylpiperidin-3-yl)-4-amino-3-(4-phenoxyphenyl)-1H-imidazo[4,5-c]pyridin-2(3H)-one]
- Any AE (4 weeks vs. placebo 12 weeks) [1]: 16 (50.0) n (%)
- Any AE leading to study treatment discontinuation [1]: 0 n (%)
- Any treatment-related AE [1]: 7 (21.9) n (%)
- Serious AE [1]: 1 (3.1) n (%)
- Participants with any TEAE [2]: 16 (50.0) n (%)
- Participants with any TEAE leading to death [2]: 0 n (%)
- Participants with any TEAE leading to study treatment discontinuation [2]: 0 n (%)
- Participants with any severe TEAE [2]: 0 n (%)
- Participants with any treatment emergent SAE [2]: 0 n (%)
- Participants with any treatment-related TEAE [2]: 6 (18.8) n (%)
- Participants with study discontinuation due to any TEAE [2]: 0 n (%)
- Participants with treatment emergent SAE(s): Any class [2]: 0 n(%)
- Participants with treatment emergent SAE(s): Multiple sclerosis relapse [2]: 0 n(%)
- Participants with treatment emergent SAE(s): NERVOUS SYSTEM DISORDERS [2]: 0 n(%)
- Participants with any TEAE leading to death (BTKi 5 (N = 32), Weeks 1 to 4): 0 n (%)
- Participants with any TEAE leading to study treatment discontinuation (BTKi 5 (N = 32), Weeks 1 to 4): 0 n (%)
- Participants with any severe TEAE (BTKi 5 (N = 32), Weeks 1 to 4): 0 n (%)
- Participants with any treatment emergent SAE (BTKi 5 (N = 32), Weeks 1 to 4): 0 n (%)
- Participants with study discontinuation due to any TEAE (BTKi 5 (N = 32), Weeks 1 to 4): 0 n (%)
- Participants with any TEAE [3]: 18 (56.3) n (%)
- Participants with any TEAE leading to death [3]: 0 n (%)
- Participants with any TEAE leading to study treatment discontinuation [3]: 0 n (%)
- Participants with any severe TEAE [3]: 0 n (%)
- Participants with any treatment emergent SAE [3]: 0 n (%)
- Participants with any treatment-related TEAE [3]: 3 (9.4) n (%)
- Participants with study discontinuation due to any TEAE [3]: 0 n (%)
- Participants with treatment emergent SAE(s): Any class [3]: 0 n(%)
- Participants with treatment emergent SAE(s): Multiple sclerosis relapse [3]: 0 n(%)
- Participants with treatment emergent SAE(s): NERVOUS SYSTEM DISORDERS [3]: 0 n(%)
- Participants with any TEAE leading to death (BTKi 15 (N = 32), Weeks 1 to 4): 0 n (%)
- Participants with any TEAE leading to study treatment discontinuation (BTKi 15 (N = 32), Weeks 1 to 4): 0 n (%)
- Participants with any severe TEAE (BTKi 15 (N = 32), Weeks 1 to 4): 0 n (%)
- Participants with any treatment emergent SAE (BTKi 15 (N = 32), Weeks 1 to 4): 0 n (%)
- Participants with study discontinuation due to any TEAE (BTKi 15 (N = 32), Weeks 1 to 4): 0 n (%)
- Participants with any TEAE [4]: 17 (51.5) n (%)
- Participants with any TEAE leading to death [4]: 0 n (%)
- Participants with any TEAE leading to study treatment discontinuation [4]: 0 n (%)
- Participants with any severe TEAE [4]: 1 (3.0) n (%)
- Participants with any treatment emergent SAE [4]: 1 (3.0) n (%)
- Participants with any treatment-related TEAE [4]: 4 (12.1) n (%)
- Participants with study discontinuation due to any TEAE [4]: 0 n (%)
- Participants with treatment emergent SAE(s): Any class [4]: 1 (3.0) n(%)
- Participants with treatment emergent SAE(s): Multiple sclerosis relapse [4]: 1 (3.0) n(%)
- Participants with treatment emergent SAE(s): NERVOUS SYSTEM DISORDERS [4]: 1 (3.0) n(%)
- Participants with any TEAE leading to death (BTKi 30 (N = 33), Weeks 1 to 4): 0 n (%)
- Participants with any TEAE leading to study treatment discontinuation (BTKi 30 (N = 33), Weeks 1 to 4): 0 n (%)
- Participants with any severe TEAE (BTKi 30 (N = 33), Weeks 1 to 4): 0 n (%)
- Participants with any treatment emergent SAE (BTKi 30 (N = 33), Weeks 1 to 4): 0 n (%)
- Participants with study discontinuation due to any TEAE (BTKi 30 (N = 33), Weeks 1 to 4): 0 n (%)
- Participants with any TEAE leading to death [5]: 0 n (%)
- Participants with any TEAE leading to study treatment discontinuation [5]: 0 n (%)
- Participants with any severe TEAE [5]: 0 n (%)
- Participants with any treatment emergent SAE [5]: 0 n (%)
- Participants with any treatment-related TEAE [5]: 2 (6.1) n (%)
- Participants with study discontinuation due to any TEAE [5]: 0 n (%)
- Participants with treatment emergent SAE(s): Any class [5]: 0 n(%)
- Participants with treatment emergent SAE(s): Multiple sclerosis relapse [5]: 0 n(%)
- Participants with treatment emergent SAE(s): NERVOUS SYSTEM DISORDERS [5]: 0 n(%)
- Participants with any TEAE leading to death (BTKi 60 (N = 33), Weeks 1 to 4): 0 n (%)
- Participants with any TEAE leading to study treatment discontinuation (BTKi 60 (N = 33), Weeks 1 to 4): 0 n (%)
- Participants with any severe TEAE (BTKi 60 (N = 33), Weeks 1 to 4): 0 n (%)
- Participants with any treatment emergent SAE (BTKi 60 (N = 33), Weeks 1 to 4): 0 n (%)
- Participants with study discontinuation due to any TEAE (BTKi 60 (N = 33), Weeks 1 to 4): 0 n (%)
- AESIs (alanine aminotransferase increased >3×ULN) reported in the study (all dose groups): two
- TEAEs leading to permanent treatment discontinuation (all dose groups): no TEAEs leading to permanent treatment discontinuation
- Upper respiratory tract infection (TEAE) (in each treatment group (5, 15, 30, 60 mg), Weeks 1 to 4): 1 case
- Deaths (whole study, all dose groups): No deaths
